Results as given in patent publication US20190211317A1, “PEPTIDES AND NANOPARTICLES FOR INTRACELLULAR DELIVERY OF GENOME-EDITING MOLECULES” (Aadigen, LLC, priority 2016, published 2019).
Several values for one entry are separate records, joined by “and”; a condition that tells them apart may be missing. Identical values can stand only once. Non-standard residues stand in square brackets, D forms with d. Residues, ends and D or L forms follow the SMILES beside them. βAla = NCCC(=O)O

Legend:
[1] = test system: EGFP reporter gene in EGFP-U2OS, EGFP-HEK, EGFP-JURKAT cells; assay: EGFP reporter gene disruption from CPP delivery of CAS9:sgRNA (flow cytometry); format: cell-based, human; conditions: for reduction of EGFP-positive cells: EGFP-JURKAT; for decrease in EGFP expression: CAS9:gRNA 50 nM, CPP:cargo 20:1; for reduction of EGFP-expressing cells / loss of EGFP expression: JURKAT; for reduction of EGFP-expressing cells / loss of EGFP expression / loss of EGFP expression: 1 nM CAS9:gRNA; for loss of EGFP expression: both cell lines (U2OS, HEK);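 on all read-outs here: cells carrying one integrated EGFP reporter received peptide-complexed CAS9 preloaded 1:1 with EGFP sgRNA, cultured 72 h, then EGFP level read by flow cytometry, lipofectamine 2000 and RNAiMAX as positive controls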
Procedure: Efficacy of CPP-mediated delivery was quantified using a well-established CAS9-induced gene disruption method (Fu et al, 2013, supra), by targeting a specific site in the exogenous EGFP gene reporter in three human cell lines expressing EGFP (GFP-U2OS, EGFP-HEK, EGFP-JURKAT).
Stock solutions of amphipathic peptides were prepared at 1 mg/mL in distilled water and sonicated for 10 min. CAS9 protein was preloaded with purified EGFP sgRNA at a molar ratio of 1:1 and incubated for 10 min prior to forming complexes with the peptides. Preloaded CAS9/gRNA complexes (10 nM, 25 nM, and 50 nM) were mixed with CPPs at 5:1, 10:1 and 20:1 molar ratios of CPP to cargo and incubated for 30 min at 37° C. prior to cell transfection.
Cell line containing a single integrated EGFP reporter gene (GFP-U2OS, EGFP-HEK and EGFP-JURKAT) were cultured in Dulbecco's Modified Eagle's Medium (DMEM), supplemented with 2 mM glutamine, 1% antibiotics (streptomycin 10,000 μg/mL, penicillin, 10,000 IU/mL) and 10% (w/v) foetal calf serum (FCS) at 37° C. in a humidified atmosphere containing 5% CO2. A total of 150,000 cells seeded in a 35 mm dish the day prior to transfection were grown to 50-60% confluence and overlaid with 200 μl of preformed complexes, incubated for 3-5 min, then 400 μl of DMEM was added. After 30 min incubation at 37° C., 1 mL of fresh DMEM containing 16% FCS was added to reach a final FCS concentration of 10%, without removing the overlay of CPP/CAS9-gRNA complexes. Cells were returned to the incubator for 72 hours.
CAS9-induced double-strand break formation was analyzed using flow cytometry by monitoring level of EGFP expression. […] Both lipofectamine 2000 and RNAiMAX delivery methods were used as positive controls.

[2] = test system: U2OS, HEPG2, K562 cells and primary human fibroblasts; assay: CAS9 protein expression after CPP delivery of CAS9 mRNA (ELISA); format: cell-based; conditions: day 3
Procedure: CPP/CAS9 mRNA complexes were formed by mixing the CAS9 mRNA (0.5 μg) with CPP at a 20:1 molar ratio of CPP:CAS9 mRNA and incubating for 30 min at 37° C. prior to cell transfection. Cells were transfected according to optimized protocols for either adherent or suspension cell lines.
Human primary fibroblasts were freshly obtained and grown in flasks pre-coated with a gelatin-based coating solution and incubated in Culture Complete Growth Medium for 3 days before expansion and treatment. U2OS cells were cultured in Dulbecco's Modified Eagle's Medium (DMEM), supplemented with 2 mM glutamine, 1% antibiotics (streptomycin 10,000 μg/mL, penicillin, 10,000 IU/mL) and 10% (w/v) foetal calf serum (FCS), at 37° C. in a humidified atmosphere containing 5% CO2. 35 mm dishes seeded with 150,000 cells the day prior to transfection were grown to 50-60% confluence and set up to be at about 70% confluences at the time of transfection. Before transfection, cells were washed with DMEM (2×) followed by PBS (1×). Cells were then overlaid with 0.2 ml of complex solution (16 μl CPP/Cargo complex in water+184 μl OPTiMEM without antibiotics), mixed gently, and incubated for 10 min at 37° C. 0.8 mL of fresh OPTiMEM or DMEM was then added and cells were incubated for 20 min at 37° C. 2 mL of complete OPTiMEM (high glucose) or DMEM containing 11.4% FCS was then added in order to reach a final FCS concentration of 10%, without removing the overlay of CPP/Cargo complexes. Cells were returned to the incubator (37° C., 5% CO2) and assayed at 72 hours post transfection.
K562 and HEpG2 cells were set up to be at about 70% confluence at the time of transfection. The cells were maintained in high glucose DMEM media with 10% serum. Before transfection, cells were harvested by centrifugation, then washed with DMEM (2×) followed by PBS (1×). Cells were then resuspended in 0.2 ml of complex solution (16 μl CPP/Cargo complex in water+184 μl OPTiMEM without antibiotics), mixed gently, and incubated for 10 min at 37° C. 0.8 mL of fresh OPTiMEM was then added and cells were incubated for 20 min at 37° C. 2 mL of complete OPTiMEM (high glucose) containing 11.4% FCS was then added in order to reach a final FCS concentration of 10%, without removing the overlay of CPP/Cargo complexes. Cells were returned to the incubator (37° C., 5% CO2) and assayed at 72 hours post transfection.
RNAiMAX lipid-based delivery (Invitrogen Thermo Fisher France) was used as a control and transfections were performed following the manufacturer's instructions. CAS9 expression level was analyzed at multiple time points over a period of 10 days as determined by ELISA on protein extracts using antibodies against CRISPR/Cas9 obtained from Diagenode (Diagenode cat. No. C15200223) and ABCAM (clone 7A9-ab191468).

[3] = test system: endogenous EMX1 gene in U2OS, HEPG2, K562 cells and primary human fibroblasts; assay: EMX1 editing from CPP delivery of CAS9 mRNA/gRNA (T7E1); format: cell-based
Procedure: CPP/CAS9 mRNA/gRNA complexes were formed by mixing the CAS9 mRNA (0.5 μg) and gRNA (5 μg) with CPP at a 20:1 molar ratio of CPP:cargo and incubating for 30 min at 37° C. prior to cell transfection. Suspension and adherent cells were transfected according to the protocols described in Example 13a. RNAiMAX-mediated delivery (Invitrogen Thermo Fisher France) was used as a control. EMX1 gene editing was analyzed at day 3 and day 6 by T7E1 assay and quantified using a Fragment Analyzer System.

[4] = test system: endogenous EMX1 gene in U2OS, HEPG2, K562 cells and primary human fibroblasts; assay: EMX1 editing from CPP delivery of CAS9 protein/gRNA (T7E1); format: cell-based; conditions: each of the cell types tested; 2.5 μg/5 μg CAS9/gRNA
Procedure: CPP/CAS9/gRNA complexes were prepared by mixing preloaded CAS9/gRNA complexes (2.5 μg/5 μg CAS9/gRNA) with CPP peptides at a 20:1 molar ratio of CPP to cargo and incubating for 30 min at 37° C. prior to cell transfection. Cells were transfected according to the protocols described in Example 13a, and RNAiMAX-mediated delivery (Invitrogen Thermo Fisher France) was used as a control. EMX1 gene editing was analyzed at day 3 and day 6 by T7E1 assay and quantified using a Fragment Analyzer System.

[5] = test system: U2OS and HEPG2 cell lines and primary human fibroblasts; assay: CAS9 protein expression after CPP delivery of CAS9-expressing plasmid (ELISA); format: cell-based; conditions: day 6
Procedure: CPP/plasmid complexes were prepared by mixing 0.5 μg of a CAS9-expressing plasmid (Addgene MLM3639-Plasmid #42252) with CPP at a 20:1 molar ratio of CPP:cargo and incubating for 30 min at 37° C. prior to cell transfection. Cells were transfected according to the protocols for adherent and suspension cells described in Example 13a. Lipofectamine 2000 was used as lipid-based delivery control. CAS9 protein expression level was analyzed at multiple time points over a period of 10 days as determined by ELISA on protein extracts using antibodies against CRISPR/Cas9 obtained from Diagenode (Diagenode cat. No. C15200223) and ABCAM (clone 7A9-ab191468).

Swiss mice = assay: In vivo delivery of CAS9 mRNA by three CPPs: CAS9 expression in tissues (ELISA); set-up: species or system mouse; conditions: for ELISA signal for CAS9 protein expression: day 3 and day 6, CAS9 mRNA 5 μg i.v., 20:1; for CAS9 protein expression: other tissues examined
Procedure: Free CAS9 mRNA in physiological buffer was injected as a control.
At day 3, day 6, and day 10 following injection, animals were sacrificed and tissues including lung, liver, brain, kidney, heart, spleen, blood, pancreas, muscle, bone marrow, and intestine were collected. Tissues were homogenized and CAS9 protein levels in protein extracts were analyzed by ELISA using an antibody against CRISPR/Cas9 (SBI clone 7A9).

PCSK9 = assay: In vivo CAS9 mRNA/gRNA targeting PCSK9: serum PCSK9 (ELISA); set-up: species or system mouse
Procedure: Polyadenylated and capped CAS9 mRNA was obtained from ThermoFisher, and gRNA (5 μg) targeting PCSK9 Exon 1 was obtained from Eurogentec. […] Free CAS9 mRNA/gRNA was injected as a control.
Blood samples were collected by saphenous vein bleeds at multiple time points (day 3, 6, 10, and 21), collecting no more than 100 μl or 10% of total blood volume per week. Serum levels of PCSK9 were determined by ELISA using the Mouse Proprotein Convertase 9/PCSK9 Quantikine ELISA Kit (MPC-900, R&DSystems).

primary human T cells = assay: CAS9 protein expression in primary human T cells after CAS9 mRNA or plasmid delivery (ELISA); format: cell-based; conditions: day 3
Procedure: T cells were isolated from PBMCs using anti-CD3/anti-CD28 antibodies bound to paramagnetic beads (Dynabeads ClinExVivo CD3/CD28, Invitrogen) at a ratio of 3:1 (beads:cells). The cells and beads were co-incubated for 2 hours at room temperature and CD3^+ cell enrichment was performed using Dynal ClinExVIVO MPC magnet (Thermo Fisher). The anti-CD3/anti-CD28 paramagnetic beads were removed, washed and concentrated. Cells in the CD3^+ fraction were resuspended in activation media at a concentration of 1×10^6 cells/ml with AIM-V medium (Thermo Fishers) supplemented with 10% fetal calf serum, 300 IU/ml IL2 and 50 ng/ml OKT3 (MuromonAB-CD3) for two days.
CPP/CAS9 complexes were formed by mixing the CAS9 mRNA (0.5 μg) with CPP at a 20:1 molar ratio of CPP:CAS9 mRNA and incubating for 30 min at 37° C. prior to cell transfection. CPP/CAS9-expressing plasmid complexes were formed by mixing the CAS9-expressing plasmid (Addgene MLM3639-Plasmid #42252) (0.5 μg) with CPP at a 20:1 molar ratio of CPP:plasmid and incubating for 30 min at 37° C. prior to cell transfection.
Cells were transfected according to the protocol for suspension cells described in Example 13a. RNAiMAX and lipofectamine 2000 lipid-based delivery methods (Invitrogen Thermo Fisher France) were used as controls, and transfections were performed following the manufacturer's instructions. CAS9 protein expression level was analyzed at multiple time points over a period of 10 days as determine by ELISA on protein extracts using antibodies against CRISPR/Cas9 obtained from Diagenode (Diagenode cat. No. C15200223) and ABCAM (clone 7A9-ab191468).

[6] = test system: endogenous EMX1 gene in primary human T cells; assay: EMX1 editing in primary human T cells with CAS9 mRNA, protein or plasmid plus gRNA (T7E1); format: cell-based
Procedure: CPP/CAS9 mRNA/gRNA complexes were formed by mixing the CAS9 mRNA (0.5 μg) and gRNA (5 μg) with CPP at a 20:1 molar ratio of CPP to nucleic acid (mRNA+gRNA) and incubating for 30 min at 37° C. prior to cell transfection. CPP/plasmid/gRNA complexes were formed by mixing CAS9 expressing plasmid (Addgene MLM3639-Plasmid #42252) (0.5 μg) and gRNA (5 μg) with CPP at a 20:1 molar ratio of CPP to nucleic acid (plasmid+gRNA) and incubating for 30 min at 37° C. prior to cell transfection. CPP/CAS9/gRNA complexes were formed by mixing preloaded CAS9/gRNA complexes (2.5 μg/5 μg CAS9/gRNA) with CPP at a 20:1 molar ratio of CPP to complex and incubating for 30 min at 37° C. prior to cell transfection.
T cells were transfected according to the protocol for suspension cells described in Example 13a. Lipofectamine 2000- and RNAiMAX-mediated delivery methods (Invitrogen Thermo Fisher France) were included as controls. EMX1 gene editing was analyzed at day 3, day 6, and day 10 by T7E1 assay and quantified using a Fragment Analyzer System.

[7] = Particle size, polydispersity and zeta potential with different cargoes (Zetasizer NANO ZS P); format: physicochemical; conditions: 20:1; for formation of stable nanoparticles: with CAS9-mRNA and CAS9-mRNA/gRNA complex
Procedure: The CPP/CAS9-protein, CPP/CAS9-protein/sgRNA, CPP/CAS9-mRNA, CPP/CAS-mRNA/sgRNA particles were characterized; the mean size, polydispersity, and zeta potential were measured with a Zetasizer NANO ZS P apparatus (Malvern Ltd).
The mean size and the polydispersity of the CCP/cargo complexes were determined at 25° C. for 5 min per measurement and zeta potential was measured with a Zetasizer NANO ZS P apparatus (Malvern Ltd).

[8] = CPP/CAS9 and CPP/CAS9:gRNA particle size, polydispersity, zeta potential (Zetasizer 4); format: physicochemical
Procedure: The CPP/CAS9 and CPP/CAS9/sgRNA particles were further characterized; the mean size, polydispersity and zeta potential were measured with Zetasizer 4 apparatus (Malvern Ltd). […] The mean size and the polydispersity of the CCP/CAS9 and CCP/CAS9:gRNA complexes were determined at 25° C. for 3 min per measurement and zeta potential was measured with Zetasizer 4 apparatus (Malvern Ltd).

[9] = test system: endogenous EMX1 gene in U2OS, JURKAT and K562 cells; assay: EMX1 gene editing from CPP delivery of CAS9/gRNA (T7E1 assay); format: cell-based, human
Procedure: RNAiMAX delivery was used as a positive control as it was previously reported to show better results than Lipofectamine 2000 (Zuris et al., 2015, supra). […] Cells were returned to the incubator for 72 hours.

[10] = test system: endogenous EMX1 and exogenous EGFP reporter genes in GFP-U2OS, EGFP-JURKAT cells; assay: Delivery of multiple RGEN/gRNA complexes: EMX1 and EGFP editing; format: cell-based, human
Procedure: RNAiMAX delivery was used as positive control. Cells were treated as described previously and CAS9-induced NHEJ analyzed 72 hr after transfection. […] The deletion (indel) frequency in the EMX1 gene was quantified using the T7E1 assay and loss of EGFP expression was monitored by flow cytometry. Data for on-target mutations induced by RGEN/gRNA are reported as an average of 3 separate experiments.

[11] = test system: endogenous EMX1 gene in U2OS, HEPG2 cells and primary human fibroblasts; assay: EMX1 editing from CPP delivery of CAS9-expressing plasmid and gRNA (T7E1); format: cell-based; conditions: the three cell types
Procedure: EMX1-targeting gRNAs were prepared as described above. CPP/plasmid/gRNA complexes were prepared by mixing 0.5 μg of a CAS9-expressing plasmid (Addgene MLM3639-Plasmid #42252) and 5 μg gRNA with CPP at a 20:1 molar ratio of CPP to nucleic acid (plasmid+gRNA) and incubating for 30 min at 37° C. prior to cell transfection. Suspension and adherent cells were transfected according to the protocols described in Example 13a. Lipofectamine 2000- and RNAiMAX-mediated delivery methods (Invitrogen Thermo Fisher France) were used as controls. EMX1 gene editing was analyzed at day 3 and day 6 by T7E1 assay and quantified using a Fragment Analyzer System.

[12] = day 1, CAS9 mRNA 5 μg/gRNA 5 μg single i.v.
[13] = CAS9-expressing plasmid and gRNA, day 3
[14] = with CAS9-mRNA and CAS9-mRNA/gRNA

CC(C)C[C@H](NC(=O)CCN)C(=O)N[C@@H](Cc1c[nH]c2ccccc12)C(=O)N[C@@H](CCCNC(=N)N)C(=O)N[C@@H](C)C(=O)N[C@@H](CC(C)C)C(=O)N[C@@H](Cc1c[nH]c2ccccc12)C(=O)N[C@@H](CCCNC(=N)N)C(=O)N[C@@H](CC(C)C)C(=O)N[C@@H](Cc1c[nH]c2ccccc12)C(=O)N[C@@H](CCCNC(=N)N)C(=O)N[C@@H](CO)C(=O)N[C@@H](CC(C)C)C(=O)N[C@@H](Cc1c[nH]c2ccccc12)C(=O)N[C@@H](CCCNC(=N)N)C(=O)N[C@@H](CC(C)C)C(=O)N[C@@H](CC(C)C)C(=O)N[C@@H](Cc1c[nH]c2ccccc12)C(=O)N[C@@H](CCCCN)C(=O)N[C@@H](C)C(=O)O [VEPEP-6] (H-[βAla]LWRALWRLWRSLWRLLWKA-OH; N-terminus and C-terminus assumed)
reduction of EGFP-positive cells [1]: no significant change
decrease in EGFP expression ([1]; HEK): 30%
reduction of EGFP-expressing cells / loss of EGFP expression [1]: no change in EGFP expression
decrease in EGFP expression ([1]; U2OS): 25%
loss of EGFP expression [1]: no change in EGFP expression
ELISA signal for CAS9 protein expression ([2]; U2OS, K562, HepG2, CAS9 mRNA 0.5 μg): ~30 times the background
ELISA signal for CAS9 protein expression ([2]; primary human fibroblasts): about 20 times the background
mean indel frequencies [3]: about 60%
mean indel frequencies [4]: no significant EMX1 gene editing
ELISA signal for CAS9 protein expression ([5]; U2OS and HEPG2): about 4 times the background
ELISA signal for CAS9 protein expression ([5]; primary human fibroblasts): about 2 times the background
CAS9 expression (Swiss mice; day 10, brain): CAS9 expression was observed
CAS9 expression (Swiss mice; day 10, liver): CAS9 expression was observed
CAS9 expression (Swiss mice; day 10, lung): CAS9 expression was observed
ELISA signal for CAS9 protein expression (Swiss mice; liver): > 15 times that of background
CAS9 expression (Swiss mice; lung): about 8 times that of background
CAS9 protein expression (Swiss mice): Little to no increase
decrease of serum levels of PSCK9 (PCSK9; [12]): 64%
decrease of serum levels of PSCK9 (PCSK9; day 3): 73%
decrease of serum levels of PSCK9 (PCSK9; day 6): 75%
decrease of serum levels of PSCK9 (PCSK9; day 10): 73%
decrease of serum levels of PSCK9 (PCSK9; day 14): 71%
decrease of serum levels of PSCK9 (PCSK9; day 20): 70%
ELISA signal for CAS9 protein expression (primary human T cells; CAS9-expressing plasmid 0.5 μg): little to no CAS9 expression
ELISA signal for CAS9 protein expression (primary human T cells; CAS9 mRNA 0.5 μg): ~17 times the background
mean indel frequencies [6, 13]: little to no EMX1 gene editing
mean indel frequencies ([6]; CAS9 protein/gRNA): little to no EMX1 gene editing
formation of stable nanoparticles [7]: able to form stable nanoparticles
Mean diameter [7, 14]: ~100 nm
polydispersity index (PI) [7, 14]: 0.2

CC(C)C[C@H](NC(=O)CCN)C(=O)N[C@@H](CCCNC(=N)N)C(=O)N[C@@H](Cc1c[nH]c2ccccc12)C(=O)N[C@@H](Cc1c[nH]c2ccccc12)C(=O)N[C@@H](CC(C)C)C(=O)N[C@@H](CCCNC(=N)N)C(=O)N[C@@H](Cc1c[nH]c2ccccc12)C(=O)N[C@@H](C)C(=O)N[C@@H](CO)C(=O)N[C@@H](CCCNC(=N)N)C(=O)N[C@@H](Cc1c[nH]c2ccccc12)C(=O)N[C@@H](Cc1ccccc1)C(=O)N[C@@H](CO)C(=O)N[C@@H](CCCNC(=N)N)C(=O)N[C@@H](Cc1c[nH]c2ccccc12)C(=O)N[C@@H](C)C(=O)N[C@@H](Cc1c[nH]c2ccccc12)C(=O)N[C@@H](Cc1c[nH]c2ccccc12)C(=O)N[C@@H](CCCNC(=N)N)C(=O)O [VEPEP-9]
PI ([8]; Cas9:gRNA, molar ratio 20/1): 0.58 and 0.58 ± 0.1
Size ([8]; Cas9:gRNA, molar ratio 20/1): 170±10 nm
zeta ([8]; Cas9:gRNA, molar ratio 20/1): 39 ± 8 MV
Pt ([8]; Cas9, molar ratio 20/1): 0.45 ± 0.1
Size ([8]; Cas9, molar ratio 20/1): 280 ± 20 nm
zeta ([8]; Cas9, molar ratio 20/1): 32 ± 5 mV
formation of stable particles with preloaded CAS9:gRNA complex ([8]; molar ratio 10:1): neither CADY nor VEPEP-9 formed stable particles
reduction of EGFP-positive cells [1]: 22%
decrease in EGFP expression ([1]; HEK): 58%
reduction of EGFP-expressing cells / loss of EGFP expression [1]: no change in EGFP expression
decrease in EGFP expression ([1]; U2OS): 55%
loss of EGFP expression [1]: 5%
Mean indel Frequency ± S.E.M ([9]; JURICAT, CAS9/sgRNA 25 nM): 21% and 21 ± 7%
Mean indel Frequency ± S.E.M ([9]; JURKAT, CAS9/sgRNA 50 nM): 21 ± 5%
Mean indel Frequency ± S.E.M ([9]; K562, CAS9/sgRNA 25 nM): 29% and 29 ± 7%
Mean indel Frequency ± S.E.M ([9]; K562, CAS9/sgRNA 50 nM): 25 ± 5%
Mean indel Frequency ± S.E.M ([9]; U2OS, CAS9/sgRNA 25 nM, 20:1): 27% and 27 ± 3%
Mean indel Frequency ± S.E.M ([9]; U2OS, CAS9/sgRNA 50 nM): 30 ± 6%
Mean indel Frequency ± S.E.M ([10]; JURKAT, EGFP): 15 ± 8%
Mean indel Frequency ± S.E.M ([10]; JURKAT, EMX1): 10 ± 2%
Mean indel Frequency ± S.E.M ([10]; U2OS, EGFP, 25 nM each complex): 32 ± 4%
Mean indel Frequency ± S.E.M ([10]; U2OS, EMX1): 31 ± 5%
mean indel frequencies [3]: about 10%
mean indel frequencies [11]: 35-40%
CAS9 expression (Swiss mice; day 10, brain): CAS9 expression was observed
CAS9 expression (Swiss mice; day 10, liver): CAS9 expression was observed
CAS9 expression (Swiss mice; day 10, lymph node): CAS9 expression was observed
ELISA signal for CAS9 protein expression (Swiss mice; liver): > 8 times that of background
CAS9 protein expression (Swiss mice): Little to no increase
decrease of serum levels of PSCK9 (PCSK9; [12]): 13%
decrease of serum levels of PSCK9 (PCSK9; day 3): 29%
decrease of serum levels of PSCK9 (PCSK9; day 6): 31%
decrease of serum levels of PSCK9 (PCSK9; day 10): 27%
decrease of serum levels of PSCK9 (PCSK9; day 14): 25%
decrease of serum levels of PSCK9 (PCSK9; day 20): 24%
ELISA signal for CAS9 protein expression (primary human T cells; CAS9-expressing plasmid 0.5 μg): about 4 times the background
ELISA signal for CAS9 protein expression (primary human T cells; CAS9 mRNA 0.5 μg): about 4 times the background
mean indel frequencies [6, 13]: about 30%
mean indel frequencies ([6]; CAS9 protein/gRNA): about 20%
formation of stable nanoparticles [7]: able to form stable nanoparticles
Mean diameter [7, 14]: ~120 nm
mean particle size ([7]; with preloaded CAS9-protein/gRNA complex): 210±20
